Test results published in publication PMC10746112, “Synthesis and Pro-Apoptotic Effects of Nitrovinylanthracenes and Related Compounds in Chronic Lymphocytic Leukaemia (CLL) and Burkitt’s Lymphoma (BL)” (Molecules, 2023).
Several values for one entry are separate records, joined by “and”; a condition that tells them apart may be missing. Equal values may be shown once.

Experiments:
[1] = system: DG-75 Burkitt’s lymphoma cell line; assay: alamarBlue cell viability assay; details: Homo sapiens, DG-75, 48 h; for viability at 1 µM: read-out: % Viable Cells Remaining DG-75, 1 µM, 48 h; for viability at 10 µM: read-out: % Viable Cells Remaining DG-75, 10 µM, 48 h
[2] = system: MUTU-I Burkitt’s lymphoma cell line; details: human, 24 h, 10 µM
[3] = system: MUTU-I Burkitt’s lymphoma cell line; assay: alamarBlue cell viability assay; details: MUTU-I, 24 h; for viability at 1 µM: read-out: % Viable Cells Remaining MUTU-1, 1 µM, 24 h; for viability at 10 µM: read-out: % Viable Cells Remaining MUTU-1, 10 µM, 24 h
[4] = system: DG-75 Burkitt’s lymphoma cell line; details: human, 48 h, 10 µM
DG-75 cells = system: DG-75 cells; design: method as in earlier work; details: nitrostyrenes and taxol, MTT assay, reported data; cited from earlier work
[5] = system: HL-60 promyelocytic leukaemia cells; assay: alamarBlue cell viability assay; details: Homo sapiens, HL-60, 24 h; for viability at 1 µM: read-out: % Viable Cells Remaining HL60 24 h 1 µM; for viability at 10 µM: read-out: % Viable Cells Remaining HL60 24 h 10 µM
MUTU-1 cells = system: MUTU-1 cells; design: method as in earlier work; details: nitrostyrenes and taxol, MTT assay, reported data; cited from earlier work
Bjab BL cell line = assay: alamarBlue cell viability assay; format: cell-based; details: Homo sapiens, 24 h; for viability at 1 µM: read-out: % Viable Cells Remaining Bjab 24 h 1 µM; for viability at 10 µM: read-out: % Viable Cells Remaining Bjab 24 h 10 µM
Description: (§1) Cells were seeded at a density of 2.5 × 10^4 cells/well (MCF-7, MDA-MB-231 cells), 1 × 10^4 cells/well (HL-60 cells), 1–5 × 10^4 cells per well (BL MUTU-I, DG-75 cells) and 2 × 10^5 cells/well [HG-3, PGA-1 (CLL cells)], Ramos, BJAB (BL cells) (200 μL per well), in 96-well plates. Cells were treated with the desired drug concentration for the appropriate time for each cell type, and the samples were incubated as required. alamarBlue (20 μL) was then added to each well and the samples further incubated in the dark at 37 °C for 4 h. Wells containing only reagent and cell culture medium in the absence of cells were used as blank controls. Ethanol was used as a vehicle, and cells were treated with 1% ethanol (v/v) in all experiments. The 96-well plates were analysed on a fluorescence plate reader (SpectraMax Gemini, Molecular Devices) (emission and excitement wavelengths of 590 nm and 544 nm, respectively), and the fluorescence was recorded. The decrease in cell viability was then calculated with reference to the vehicle samples (100% viability). EMEM medium with the addition of alamarBlue was used as a blank. Vehicle-treated cells were considered to be 100% viable, and the viabilities of each compound was calculated accordingly. […] All biochemical assays were performed in triplicate on at least three independent occasions, and the mean values were determined.

Ramos BL cell line = assay: alamarBlue cell viability assay; format: cell-based; details: Homo sapiens, 24 h; for viability at 1 µM: read-out: % Viable Cells Remaining Ramos 24 h 1 µM; for viability at 10 µM: read-out: % Viable Cells Remaining Ramos 24 h 10 µM
Description: as §1

[6] = system: HeLa cervical cancer cells; assay: alamarBlue cell viability assay; details: Homo sapiens, 24 h; for viability at 1 µM: read-out: % Viable Cells Remaining HeLa 24 h 1 µM; for viability at 10 µM: read-out: % Viable Cells Remaining HeLa 24 h 10 µM
PGA-1 CLL cell line = assay: alamarBlue cell viability assay; details: 24 h; for % Viability PGA-1: 10 µM; for viability at 1 µM / viability at 10 µM: CLL cell; for viability at 1 µM: read-out: % Viability PGA-1, 1 µM, 24 h; for viability at 10 µM: read-out: % Viability PGA-1, 10 µM, 24 h
[7] = system: MUTU-I Burkitt’s lymphoma cell line; details: nitrostyrenes, 24 h, cited from earlier work
[8] = system: MCF-7 human breast cancer cells; assay: alamarBlue cell viability assay; details: MCF7, 72 h; for viability at 1 µM: read-out: % Viable Cells Remaining MCF-7 72 h 1 µM; for viability at 10 µM: read-out: % Viable Cells Remaining MCF-7 72 h 10 µM
MUTU-I BL cells = assay: Annexin V/PI apoptotic assay (FACS); format: cell-based; details: 10 µM, 24 h, total (early + late) apoptosis
Description: (§2) The chemotherapeutic drug taxol was used as a positive control. The pro-apoptotic effects of the selected nitrostyrene compounds 11g, 11h, 11i, 11j, 11k and 11l (10 μM) were determined using FITC (fluorescein isothiocyanate), Annexin V/PI (propidium iodide) staining and FACS (fluorescence-activated cell sorting) analysis to characterise the mode of cellular death induced by the synthesised compounds. Four populations were produced in this assay: Annexin-V- and PI-negative (Q4, healthy cells), Annexin-V-positive and PI-negative (Q3, early apoptosis), Annexin-V- and PI-positive (Q2, late apoptosis) and Annexin-V-negative and PI-positive (Q1, necrosis), which were easily identified and quantified. Apoptosis was assessed as % total apoptosis by a combination of early and late apoptosis (Q3 and Q2, respectively). […] The identification of compounds that can induce apoptosis in cancer cells is required in the development of potential lead structures for anticancer drugs.
(§3) The BL cells DG-75 and MUTU-I (750,000) were treated at 37 °C with either vehicle (0.1% (v/v) EtOH), […] taxol (10 μM) and incubated for 24 h (MUTU-1) or 48 h (DG-75). The CLL cells PGA1 and HG3 (1 × 10^6 cells/mL) were treated at 37 °C with either vehicle (1% (v/v) DMSO) or the nitrostyrene compounds 19a (10 μM, 5 μM and 1 μM) and 19g, 19i, 19l and 19m (10 μM and 1 μM) for 48 h. The cells were then harvested by centrifugation at 400× g in a temperature-controlled Sorvall centrifuge and rinsed with 0.5 mL of Ca^2+ Annexin-V-binding buffer (0.1 M HEPES, pH 7.4; 0.14 M NaCl; 25 mM CaCl2). The samples were resuspended in 50 µL FITC Annexin V (diluted 1:33 in Ca^2+ Annexin V-binding buffer), incubated on ice for 10 min (protected from light), washed with Annexin-V-binding buffer and re-suspended in 500 µL of propidium iodide (PI) solution (0.5 µg/mL). The samples were analysed within 1 h using a BD Accuri C6 flow cytometer counting 10,000 cells and analysed using the FlowJo software (FlowJo LLC, Ashland, OR, USA) package.

DG-75 BL cells = assay: Annexin V/PI apoptotic assay (FACS); format: cell-based; details: 10 µM, 48 h, total (early + late) apoptosis
Description: as §2, §3

[9] = system: DG-75 Burkitt’s lymphoma cell line; details: nitrostyrenes, 48 h, cited from earlier work
HG-3 CLL cell line = assay: alamarBlue cell viability assay; details: 24 h; for viability at 10 µM: read-out: % Viability HG-3, 10 µM, 24 h

Compound | viability at 1 µM [1] | viability at 10 µM [1] | % Viable Cells Remaining MUTU-1 [2] | viability at 1 µM [3] | viability at 10 µM [3] | melting point | % Viable Cells Remaining DG-75 [4] | IC50 (DG-75 cells) | viability at 1 µM [5] | viability at 10 µM [5] | IC50 (MUTU-1 cells) | viability at 1 µM (Bjab BL cell line) | viability at 10 µM (Bjab BL cell line) | viability at 1 µM (Ramos BL cell line) | viability at 10 µM (Ramos BL cell line) | viability at 1 µM [6] | viability at 10 µM [6] | % Viable Cells Remaining MUTU-1 24 h 10 µM [7] | MUTU-I Apoptosis (%) (MUTU-I BL cells) | DG-75 Apoptosis (%) (DG-75 BL cells) | further results
c1ccc2c(C3CNN=N3)c3ccccc3cc2c1 (centres unmarked) [Compound 31, 4-(Anthracen-9-yl)-4,5-Dihydro-1H-1,2,3-Triazole] | 96% | > 90% | 103.1% | 96% | > 90% | 266 to 268 °C | 103.1% |  |  |  |  |  |  |  |  |  |  |  |  |  | 
Cc1[nH]nnc1-c1c2ccccc2cc2ccccc12 [Compound 30b, 4-(Anthracen-9-yl)-5-Methyl-1H-1,2,3-Triazole] | 96.2% | > 90% | 107.3% | 108% | > 90% | 231 to 232 °C | 100.6% |  |  |  |  |  |  |  |  |  |  |  |  |  | 
CC(=CCc1c2ccccc2cc2ccccc12)[N+](=O)[O-] [Compound 20b, 9-(3-Nitrobut-2-en-1-yl)Anthracene] | 95.4% | 79 to 97% | 14.55% | 105% | 15 to 40% |  | 97.63% |  |  |  |  |  |  |  |  |  |  |  |  |  | 
CC(=O)/C=C/c1c2ccccc2cc2ccccc12 [Compound 25] | 96.3% | > 90% | 103.2% | 107% | > 90% |  | 100.5% |  |  |  |  |  |  |  |  |  |  |  |  |  | 
CC/C(=C\c1ccccc1Cl)[N+](=O)[O-] [Compound 11j, (E)-1-Chloro-2-(2-nitrobut-1-en-1-yl)benzene] |  |  |  |  |  |  |  | 2050 nM | 99.8% | 9.1% | 2180 nM | 102% | 68.9% | 66.9% | 4.4% | 95.3% | 21.8% | 10.3% and 10.27% | 88.3% | 72.3% | % Viability PGA-1 (PGA-1 CLL cell line): 0.53%; viability at 1 µM (PGA-1 CLL cell line): 6.31%; viability at 10 µM (PGA-1 CLL cell line): 0.43%; % Viable Cells Remaining MUTU-1 24 h 1 µM [7]: 64.31%; viability at 1 µM [8]: 98.1%; viability at 10 µM [8]: 20.7%; % Viable Cells Remaining DG-75 48 h 1 µM [9]: 79.77%; % Viable Cells Remaining DG-75 48 h 10 µM [9]: 15.89%; viability at 10 µM (HG-3 CLL cell line; CLL cell): 5.61%
C/C(=C\c1ccc(Cl)cc1)[N+](=O)[O-] [Compound 11i] |  |  |  |  |  |  |  | 2750 nM | 104% | 6.5% | 1300 nM | 100% | 50.8% | 62.6% | 13.9% | 93% | 17.7% | 10.53% | 84.5% | 86.4% | % Viable Cells Remaining MUTU-1 24 h 1 µM [7]: 67.22%; viability at 1 µM [8]: 103%; viability at 10 µM [8]: 37.1%; % Viable Cells Remaining DG-75 48 h 1 µM [9]: 88.76%; % Viable Cells Remaining DG-75 48 h 10 µM [9]: 0.72%
O=[N+]([O-])CCc1c2ccccc2cc2ccccc12 [Compound 22, 9-(2-Nitroethyl)Anthracene] | 86.7% | > 85% | 100.6% | 105% | > 85% | 147 to 149 °C | 99.08% |  |  |  |  |  |  |  |  |  |  |  |  |  | viability at 10 µM (PGA-1 CLL cell line): 75%; viability at 10 µM (HG-3 CLL cell line; CLL cell): 76%
CC/C(=C\c1ccc(Cl)cc1)[N+](=O)[O-] [Compound 11l] |  |  |  |  |  |  |  | 3110 nM |  |  | 1180 nM |  |  |  |  |  |  | 2.61% | 91.3% | 85.0% | 
CC/C(=C\c1cccc(Cl)c1)[N+](=O)[O-] [Compound 11k] |  |  |  |  |  |  |  | 2360 nM |  |  | 1220 nM |  |  |  |  |  |  | 2.39% | 91.5% | 90.7% | % Viability PGA-1 (PGA-1 CLL cell line): 4.34%; viability at 1 µM (PGA-1 CLL cell line): 3.26%; % Viability HG-3 (HG-3 CLL cell line; 10 µM): 0.11%; viability at 1 µM (HG-3 CLL cell line; CLL cell, read-out: % Viability HG-3, 1 µM, 24 h): 60.7%
C/C(=C\c1ccccc1Cl)[N+](=O)[O-] [Compound 11g] |  |  |  |  |  |  |  | 2750 nM | 73.4% | 16.5% | 820 nM | 82.2% | 51.9% | 53.4% | 7.7% | 87.1% | 34.2% | 14.91% | 80.9% | 70.6% | % Viable Cells Remaining MUTU-1 24 h 1 µM [7]: 44.16%; viability at 1 µM [8]: 81.4%; viability at 10 µM [8]: 41.7%; % Viable Cells Remaining DG-75 48 h 1 µM [9]: 75.86%; % Viable Cells Remaining DG-75 48 h 10 µM [9]: −0.08%
